These results are taken from patent publication US8759373B2, “Cyanoisoquinoline compounds and methods of use thereof” (Fibrogen, Inc., priority 2006, dated 2014).

The test deals with mouse erythropoietin. The experiment in a line: Plasma erythropoietin levels in mice after IV dosing (mouse erythropoietin QUANTIKINE ELISA). Type of test: in vivo, Male Swiss Webster mice. As to conditions: blood 4 hours post IV dosing, same conditions and concentration. As to the method: Compounds were tested for activity using the following assay. Compounds were dissolved in aqueous solution containing twice as much sodium hydroxide, mole-for-mole, as compound and dextrose as tonicity agent. Male Swiss Webster mice were dosed by tail vein injection with the compound, and blood samples were collected into EDTA and heparin 4 hours post IV dosing. The samples were analyzed using a mouse erythropoietin QUANTIKINE ELISA kit (R&D Systems Inc., Minneapolis Minn.) according to the manufacturer's instructions. […] Table 1 below illustrates the fold difference (i.e., the level of improvement) between erythropoietin levels achieved by compounds of the invention compared to erythropoietin levels achieved by compounds having the same structure except the cyano group at the C-1 position is replaced as shown below, tested under the same conditions and at the same concentration.

The mark [1] stands for this setting: comparator: same structure with —Cl in place of cyano at C-1, tail vein injection.
Setting [2] is: comparator: same structure with —H in place of cyano at C-1, tail vein injection.
The mark [3] stands for this setting: comparator: same structure with —CH3 in place of cyano at C-1, tail vein injection.

`N#Cc1nc(C(=O)NCC(=O)O)c(O)c2ccccc12` [Example 1, [(1-Cyano-4-hydroxy-isoquinoline-3-carbonyl)-amino]-acetic acid]: the “Fold Difference (erythropoietin levels vs. comparative compound)” value (shortened to “Fold Difference”) under setting [1] is 4.7×. For `CN(C)c1nc2cc(Oc3ccc4c(C#N)nc(C(=O)NCC(=O)O)c(O)c4c3)ccc2o1` [Example 40, {[1-Cyano-6-(2-dimethylamino-benzooxazol-5-yloxy)-4-hydroxy-isoquinoline-3-carbonyl]-amino}-acetic acid], the “Fold Difference” value under setting [2] was 81×. On to `COc1cccc(Oc2cccc3c(O)c(C(=O)NCC(=O)O)nc(C#N)c23)c1` [Example 20, {[1-Cyano-4-hydroxy-8-(3-methoxy-phenoxy)-isoquinoline-3-carbonyl]-amino}-acetic acid], for which the “Fold Difference” value under setting [2] is 23×.

On to `N#Cc1nc(C(=O)NCC(=O)O)c(O)c2c(Oc3ccc(F)cc3)cccc12` [Example 23, {[1-Cyano-5-(4-fluoro-phenoxy)-4-hydroxy-isoquinoline-3-carbonyl]-amino}-acetic acid], for which the “Fold Difference” value under setting [2] was determined as 277×. Turning to `N#Cc1nc(C(=O)NCC(=O)O)c(O)c2cccc(Oc3ccccc3)c12` [Example 9, [(1-Cyano-4-hydroxy-8-phenoxy-isoquinoline-3-carbonyl)-amino]-acetic acid], the “Fold Difference” value under setting [3] amounted to 2.4×.

For the compound `N#Cc1nc(C(=O)NCC(=O)O)c(O)c2cc(Oc3ccccc3)ccc12` [Example 12, [(1-Cyano-4-hydroxy-6-phenoxy-isoquinoline-3-carbonyl)-amino]-acetic acid], the “Fold Difference” value by setting is: (comparator: same structure with —Br in place of cyano at C-1, tail vein injection) 362×; under setting [1], 449×. With `N#Cc1nc(C(=O)NCC(=O)O)c(O)c2ccc(Oc3ccccc3)cc12` [Example 3, [(1-Cyano-4-hydroxy-7-phenoxy-isoquinoline-3-carbonyl)-amino]-acetic acid], the “Fold Difference” value under setting [3] stood at 2.5×. Consider `Cc1nc2ccc(Oc3ccc4c(C#N)nc(C(=O)NCC(=O)O)c(O)c4c3)cc2s1` [Example 39, {[1-Cyano-4-hydroxy-6-(2-methyl-benzothiazol-6-yloxy)-isoquinoline-3-carbonyl]-amino}-acetic acid], for which, under setting [3], the “Fold Difference” value was determined as 178×. On to `N#Cc1nc(C(=O)NCC(=O)O)c(O)c2ccc(Oc3ccc(F)cc3)cc12` [Example 6, {[1-Cyano-7-(4-fluoro-phenoxy)-4-hydroxy-isoquinoline-3-carbonyl]-amino}-acetic acid], for which, under setting [1], the “Fold Difference” value worked out at 31×. For `N#Cc1nc(C(=O)NCC(=O)O)c(O)c2ccc(Cc3ccccc3)cc12` [Example 22, [(7-Benzyl-1-cyano-4-hydroxy-isoquinoline-3-carbonyl)-amino]-acetic acid], the “Fold Difference” value under setting [2] is recorded as 26×.
